Key:
[1] = tested on: human-derived breast cancer cell line MCF-7-hCYP19A1; assay: Cell number (CellTiter Glo 2.0 emission) of MCF-7-hCYP19A1 cells with Compound A and aromatase inhibitors; type: cell-based; conditions: Compound A 1,000 nmol/L, 7 days culture with androstenedione, FGF2, FGF10, n=3
[2] = tested on: human breast cancer patient-derived tumor (OD-BRE-0438); assay: Antitumor effect of compound A and fulvestrant on OD-BRE-0438 patient-derived tumor subcutaneously transplanted in NOD-SCID mice; type: in vivo; conditions: fulvestrant 250 mg/kg s.c. days 0 and 7, combination both; for Average tumor volume after starting drug administration, Day 0: Day 0, compound A 25 mg/kg oral once a day; for Average tumor volume after starting drug administration, Day 4: Day 4, compound A 25 mg/kg oral once a day; for Average tumor volume after starting drug administration, Day 7: Day 7, compound A 25 mg/kg oral once a day; for Average tumor volume after starting drug administration, Day 11: Day 11, compound A 25 mg/kg oral once a day; for Average tumor volume after starting drug administration, Day 14: Day 14, compound A 25 mg/kg oral once a day
[3] = tested on: human-derived breast cancer cell line MCF-7-hCYP19A1; assay: Antitumor effect of compound A and letrozole on subcutaneously transplanted MCF-7-hCYP19A1 tumor in ovariectomized BALB/c nude mice; type: in vivo; conditions: letrozole 0.01 mg/mouse, or both, oral once a day; for Average tumor volume after starting drug administration, Day 0: Day 0, compound A 25 mg/kg; for Average tumor volume after starting drug administration, Day 4: Day 4, compound A 25 mg/kg; for Average tumor volume after starting drug administration, Day 7: Day 7, compound A 25 mg/kg; for Average tumor volume after starting drug administration, Day 11: Day 11, compound A 25 mg/kg; for Average tumor volume after starting drug administration, Day 14: Day 14, compound A 25 mg/kg
[4] = Table 4, anastrozole 10,000 nmol/L or both
[5] = Table 5, anastrozole 2,000 nmol/L or both
[6] = Table 3, letrozole 2,000 nmol/L or both

| Structure (SMILES) | Emission value (count per second) [1, 4] | Emission value (count per second) [1, 5] | Average tumor volume after starting drug administration, Day 0 [2] [mm^3] | Average tumor volume after starting drug administration, Day 4 [2] [mm^3] | Average tumor volume after starting drug administration, Day 7 [2] [mm^3] | Average tumor volume after starting drug administration, Day 11 [2] [mm^3] | Average tumor volume after starting drug administration, Day 14 [2] [mm^3] | Emission value (count per second) [1, 6] | Average tumor volume after starting drug administration, Day 0 [3] [mm^3] | Average tumor volume after starting drug administration, Day 4 [3] [mm^3] | Average tumor volume after starting drug administration, Day 7 [3] [mm^3] | Average tumor volume after starting drug administration, Day 11 [3] [mm^3] | Average tumor volume after starting drug administration, Day 14 [3] [mm^3] |
| --- | --- | --- | --- | --- | --- | --- | --- | --- | --- | --- | --- | --- | --- |
| CC(C)(C#N)c1cc(Cn2cncn2)cc(C(C)(C)C#N)c1 [Anastrozole, anastrozole] | 1,443,072 count per second | 1,357,941 count per second | – | – | – | – | – | – | – | – | – | – | – |
| C[C@]12CC[C@@H]3c4ccc(O)cc4C[C@@H](CCCCCCCCC[S+]([O-])CCCC(F)(F)C(F)(F)F)[C@H]3[C@@H]1CC[C@@H]2O (some centres unmarked) [Fulvestrant, fulvestrant] | – | – | 148.7 | 172.2 | 208.2 | 207.4 | 237.6 | – | – | – | – | – | – |
| CNC(=O)n1ccc2cc(Oc3ccnc(NC(=O)c4ccc(C5CCN(CCO)CC5)cc4)c3)c(OCCOC)cc21 [Compound A, 5-((2-(4-(1-(2-Hydroxyethyl)piperidin-4-yl)benzamide)pyridin-4-yl)oxy)-6-(2-methoxyethoxy)-N-methyl-1H-indole-1-carboxamide] | 1,157,051 count per second | 1,157,051 count per second | 148.6 | 192.6 | 211.2 | 216.5 | 264.3 | 1,242,509 count per second | 130.7 | 155.5 | 182.4 | 224.4 | 267.5 |
| N#Cc1ccc(C(c2ccc(C#N)cc2)n2cncn2)cc1 [Letrozole, letrozole] | – | – | – | – | – | – | – | 1,410,920 count per second | 132.4 | 147.3 | 140.6 | 159.6 | 162.0 |
